Measured values: the supplement of paper PMC10733146

Legend:
Experiment in all cases: viability relative to DMSO control (fraction); higher = less drug effect (more viable cells)
Conditions in all cases: 48 h
Barasertib = compound: CCN(CCCOc1ccc2c(Nc3cc(CC(=O)Nc4cccc(F)c4)[nH]n3)ncnc2c1)CCOP(=O)(O)O [Barasertib]
Outline: (§1)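 Viability was measured as CellTiter-Glo luminescence relative to the median of 16 inner DMSO wells. Primary mononuclear tumour cells, fresh or cryopreserved, were Ficoll-isolated from blood or bone marrow or taken from processed lymph node. They were seeded at 4 × 10^4 cells per well into 384-well plates holding pre-plated compounds at five concentrations, one well each, and kept in RPMI-1640 with penicillin/streptomycin, L-glutamine and human serum at 37 °C and 5% CO2 for 48 h.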

Pomalidomide = compound: Nc1cccc2c1C(=O)N(C1CCC(=O)NC1=O)C2=O [Pomalidomide]
Outline: as §1

Palbociclib = compound: CC(=O)c1c(C)c2cnc(Nc3ccc(N4CCNCC4)cn3)nc2n(C2CCCC2)c1=O [Palbociclib]
Outline: as §1

Chlorambucil = compound: O=C(O)CCCc1ccc(N(CCCl)CCCl)cc1 [Chlorambucil]
Outline: as §1

Tofacitinib = compound: C[C@@H]1CCN(C(=O)CC#N)C[C@@H]1N(C)c1ncnc2[nH]ccc12 [Tofacitinib]
Outline: as §1

Filgotinib = compound: O=C(Nc1nc2cccc(-c3ccc(CN4CCS(=O)(=O)CC4)cc3)n2n1)C1CC1 [Filgotinib]
Outline: as §1

Duvelisib = compound: C[C@H](Nc1ncnc2nc[nH]c12)c1cc2cccc(Cl)c2c(=O)n1-c1ccccc1 [Duvelisib]
Outline: as §1

[1] = compound: CCc1ccc(/C=C2/SC(=S)NC2=O)cc1
Outline: as §1

Etoposide = compound: COc1cc([C@@H]2c3cc4c(cc3[C@@H](O[C@@H]3O[C@@H]5CO[C@@H](C)O[C@H]5[C@H](O)[C@H]3O)[C@H]3COC(=O)[C@H]23)OCO4)cc(OC)c1O [Etoposide]
Outline: as §1

[2] = compound: C[C@H](NC(=O)CCC(F)(F)F)C(=O)N[C@@H]1C(=O)N(CCO)c2ncccc2-c2ccccc21
Outline: as §1

Selinexor = compound: O=C(/C=C\n1cnc(-c2cc(C(F)(F)F)cc(C(F)(F)F)c2)n1)NNc1cnccn1 [Selinexor]
Outline: as §1

Navitoclax = compound: CC1(C)CCC(c2ccc(Cl)cc2)=C(CN2CCN(c3ccc(C(=O)NS(=O)(=O)c4ccc(N[C@H](CCN5CCOCC5)CSc5ccccc5)c(S(=O)(=O)C(F)(F)F)c4)cc3)CC2)C1 [Navitoclax]
Outline: as §1

Midostaurin hydrate = compound: CO[C@@H]1[C@H](N(C)C(=O)c2ccccc2)C[C@H]2O[C@]1(C)n1c3ccccc3c3c4c(c5c6ccccc6n2c5c31)C(=O)NC4 [Midostaurin hydrate]
Outline: as §1

EPZ-6438 = compound: CCN(c1cc(-c2ccc(CN3CCOCC3)cc2)cc(C(=O)NCc2c(C)cc(C)[nH]c2=O)c1C)C1CCOCC1 [EPZ-6438]
Outline: as §1

SGC 0946 = compound: CC(C)N(CCCNC(=O)Nc1ccc(C(C)(C)C)cc1)C[C@H]1O[C@@H](n2cc(Br)c3c(N)ncnc32)[C@H](O)[C@@H]1O [SGC 0946]
Outline: as §1

For primary AML patient cells (S072), the viability (Barasertib; 0.0008 µM) was 1.05, the viability (Barasertib; 0.004 µM) was 0.848 and the viability (Barasertib; 0.02 µM) was 0.851. It also gave a viability (Barasertib; 0.1 µM) of 0.857, a viability (Barasertib; 0.5 µM) of 0.944 and a viability (Pomalidomide; 0.0032 µM) of 0.977. For the same test system, the viability (Pomalidomide; 0.016 µM) was 1.13, the viability (Pomalidomide; 0.08 µM) was 1.19 and the viability (Pomalidomide; 0.4 µM) was 1.14. The viability (Pomalidomide; 2 µM) was 1.25, the viability (Palbociclib; 0.024 µM) was 1.01 and the viability (Palbociclib; 0.12 µM) was 0.922. For the same test system, the viability (Palbociclib; 0.6 µM) was 0.957, the viability (Palbociclib; 3 µM) was 0.747 and the viability (Palbociclib; 15 µM) was 0.294. The viability (Chlorambucil; 0.032 µM) was 0.968, the viability (Chlorambucil; 0.16 µM) was 1.11 and the viability (Chlorambucil; 0.8 µM) was 1.21. It also gave a viability (Chlorambucil; 4 µM) of 0.87, a viability (Chlorambucil; 20 µM) of 0.683 and a viability (Tofacitinib; 0.024 µM) of 0.903. It also gave a viability (Tofacitinib; 0.12 µM) of 0.859, a viability (Tofacitinib; 0.6 µM) of 0.84 and a viability (Tofacitinib; 3 µM) of 0.776. For the same test system, the viability (Tofacitinib; 15 µM) was 0.827, the viability (Filgotinib; 0.024 µM) was 0.952 and the viability (Filgotinib; 0.12 µM) was 0.97. For the same test system, the viability (Filgotinib; 0.6 µM) was 0.942, the viability (Filgotinib; 3 µM) was 0.86 and the viability (Filgotinib; 15 µM) was 0.295. The viability (Duvelisib; 0.0016 µM) was 0.875, the viability (Duvelisib; 0.008 µM) was 0.834 and the viability (Duvelisib; 0.04 µM) was 0.78. For the same test system, the viability (Duvelisib; 0.2 µM) was 0.7, the viability (Duvelisib; 1 µM) was 0.612 and the viability ([1]; 0.024 µM) was 0.797. For the same test system, the viability ([1]; 0.12 µM) was 0.771, the viability ([1]; 0.6 µM) was 0.851 and the viability ([1]; 3 µM) was 0.833. The viability ([1]; 15 µM) was 0.825, the viability (Etoposide; 0.032 µM) was 1.04 and the viability (Etoposide; 0.16 µM) was 0.99. It also gave a viability (Etoposide; 0.8 µM) of 0.912, a viability (Etoposide; 4 µM) of 0.938 and a viability (Etoposide; 20 µM) of 0.736. The viability ([2]; 0.016 µM) was 1.08, the viability ([2]; 0.08 µM) was 1.09 and the viability ([2]; 0.4 µM) was 0.931. The viability ([2]; 2 µM) was 1.1, the viability ([2]; 10 µM) was 1.06 and the viability (Selinexor; 0.008 µM) was 0.9. For the same test system, the viability (Selinexor; 0.04 µM) was 0.844, the viability (Selinexor; 0.2 µM) was 0.74 and the viability (Selinexor; 1 µM) was 0.571. For the same test system, the viability (Selinexor; 5 µM) was 0.477, the viability (Navitoclax; 0.0032 µM) was 0.99 and the viability (Navitoclax; 0.016 µM) was 1.18. For the same test system, the viability (Navitoclax; 0.08 µM) was 0.826, the viability (Navitoclax; 0.4 µM) was 0.709 and the viability (Navitoclax; 2 µM) was 0.52. For the same test system, the viability (Midostaurin hydrate; 0.024 µM) was 1.3, the viability (Midostaurin hydrate; 0.12 µM) was 1.01 and the viability (Midostaurin hydrate; 0.6 µM) was 0.993. For the same test system, the viability (Midostaurin hydrate; 3 µM) was 0.87, the viability (Midostaurin hydrate; 15 µM) was 0.584 and the viability (EPZ-6438; 0.024 µM) was 1.04. It also gave a viability (EPZ-6438; 0.12 µM) of 1.29, a viability (EPZ-6438; 0.6 µM) of 1.06 and a viability (EPZ-6438; 3 µM) of 1.16. The viability (EPZ-6438; 15 µM) was 0.938, the viability (SGC 0946; 0.024 µM) was 0.981 and the viability (SGC 0946; 0.12 µM) was 0.932. The viability (SGC 0946; 0.6 µM) was 0.893, the viability (SGC 0946; 3 µM) was 0.847 and the viability (SGC 0946; 15 µM) was 0.706.
With primary FL patient cells (S022) the viability (Barasertib; 0.0008 µM) was 0.844, the viability (Barasertib; 0.004 µM) was 0.871 and the viability (Barasertib; 0.02 µM) was 0.904. The viability (Barasertib; 0.1 µM) was 0.972, the viability (Barasertib; 0.5 µM) was 0.935 and the viability (Pomalidomide; 0.0032 µM) was 0.928. It also gave a viability (Pomalidomide; 0.016 µM) of 1.08, a viability (Pomalidomide; 0.08 µM) of 1.05 and a viability (Pomalidomide; 0.4 µM) of 0.954. It also gave a viability (Pomalidomide; 2 µM) of 1, a viability (Palbociclib; 0.024 µM) of 1.07 and a viability (Palbociclib; 0.12 µM) of 0.973. For the same test system, the viability (Palbociclib; 0.6 µM) was 0.986, the viability (Palbociclib; 3 µM) was 0.865 and the viability (Palbociclib; 15 µM) was 0.33. The viability (Chlorambucil; 0.032 µM) was 1.08, the viability (Chlorambucil; 0.16 µM) was 0.896 and the viability (Chlorambucil; 0.8 µM) was 1.08. It also gave a viability (Chlorambucil; 4 µM) of 1.04, a viability (Chlorambucil; 20 µM) of 0.582 and a viability (Tofacitinib; 0.024 µM) of 0.904. For the same test system, the viability (Tofacitinib; 0.12 µM) was 0.859, the viability (Tofacitinib; 0.6 µM) was 0.936 and the viability (Tofacitinib; 3 µM) was 0.914. The viability (Tofacitinib; 15 µM) was 0.894, the viability (Filgotinib; 0.024 µM) was 0.984 and the viability (Filgotinib; 0.12 µM) was 0.944. It also gave a viability (Filgotinib; 0.6 µM) of 1.01, a viability (Filgotinib; 3 µM) of 0.91 and a viability (Filgotinib; 15 µM) of 0.568. The viability (Duvelisib; 0.0016 µM) was 0.949, the viability (Duvelisib; 0.008 µM) was 0.933 and the viability (Duvelisib; 0.04 µM) was 0.988. For the same test system, the viability (Duvelisib; 0.2 µM) was 0.82, the viability (Duvelisib; 1 µM) was 0.873 and the viability ([1]; 0.024 µM) was 0.83. The viability ([1]; 0.12 µM) was 0.883, the viability ([1]; 0.6 µM) was 0.901 and the viability ([1]; 3 µM) was 0.829. It also gave a viability ([1]; 15 µM) of 0.842, a viability (Etoposide; 0.032 µM) of 0.967 and a viability (Etoposide; 0.16 µM) of 0.975. It also gave a viability (Etoposide; 0.8 µM) of 0.921, a viability (Etoposide; 4 µM) of 0.987 and a viability (Etoposide; 20 µM) of 0.783. It also gave a viability ([2]; 0.016 µM) of 1.18, a viability ([2]; 0.08 µM) of 1.06 and a viability ([2]; 0.4 µM) of 0.968. For the same test system, the viability ([2]; 2 µM) was 0.963, the viability ([2]; 10 µM) was 0.961 and the viability (Selinexor; 0.008 µM) was 0.987. For the same test system, the viability (Selinexor; 0.04 µM) was 0.861, the viability (Selinexor; 0.2 µM) was 0.779 and the viability (Selinexor; 1 µM) was 0.383. For the same test system, the viability (Selinexor; 5 µM) was 0.333, the viability (Navitoclax; 0.0032 µM) was 1.05 and the viability (Navitoclax; 0.016 µM) was 1.02. The viability (Navitoclax; 0.08 µM) was 0.724, the viability (Navitoclax; 0.4 µM) was 0.329 and the viability (Navitoclax; 2 µM) was 0.0687. It also gave a viability (Midostaurin hydrate; 0.024 µM) of 1.05, a viability (Midostaurin hydrate; 0.12 µM) of 1.01 and a viability (Midostaurin hydrate; 0.6 µM) of 1.11. The viability (Midostaurin hydrate; 3 µM) was 1.03, the viability (Midostaurin hydrate; 15 µM) was 0.774 and the viability (EPZ-6438; 0.024 µM) was 1.08. The viability (EPZ-6438; 0.12 µM) was 1.04, the viability (EPZ-6438; 0.6 µM) was 0.978 and the viability (EPZ-6438; 3 µM) was 0.997. It also gave a viability (EPZ-6438; 15 µM) of 0.892, a viability (SGC 0946; 0.024 µM) of 0.902 and a viability (SGC 0946; 0.12 µM) of 0.937. The viability (SGC 0946; 0.6 µM) was 0.808, the viability (SGC 0946; 3 µM) was 0.9 and the viability (SGC 0946; 15 µM) was 0.484.
